Legend:
[1] = Cmax in dog plasma after oral dose (1 mg/kg); assay type: ADME, organism-based, Canis lupus familiaris; design: dose 1 mg/kg, route oral
[2] = Ionisation constant (pKa); assay type: physicochemical
[3] = molecular target: Prothrombin (Homo sapiens, UniProt P00734); experiment: In vitro inhibitory activity against human Thrombin (FIIa) cleavage of the chromogenic substrate
[4] = in vivo; conditions: dog, po, 1 mg/kg
[5] = in vivo; conditions: dog, po, 1 mg/kg; remark: listed apart in the source

| Cmax [1] | pKa [2] | Ki [3] | half-life [4] | AUC ([5]; plasma) | AUC ([5]; in vivo) | Compound |
| --- | --- | --- | --- | --- | --- | --- |
| 1200 ng/mL | 8.6 | 2.5 nM | 3.28 h | 6030 ng·h/mL |  | Cc1cnc(NCC(F)(F)c2ccccc2)c(=O)n1CC(=O)NCc1ccc2c(N)noc2c1 |
| 410 ng/mL |  | 8.7 nM | 0.6 h | 515 ng·h/mL |  | Cc1ccc(NS(=O)(=O)Cc2ccccc2)c(=O)n1CC(=O)NCc1ccc2[nH]ncc2c1 |
|  |  | 444 nM |  |  |  | Cc1n[nH]c2ccc(CNC(=O)Cn3c(C)cnc(NCCc4ccccc4)c3=O)cc12 |
| 770 ng/mL | 8.6 | 25.9 nM | 1.67 h | 2230 ng·h/mL |  | Cc1cnc(NCC2(c3ccccn3)CC2)c(=O)n1CC(=O)NCc1ccc2c(N)noc2c1 |
| 300 ng/mL | 8.6 | 31 nM | 4.17 h | 2200 ng·h/mL |  | Cc1cnc(NCC(c2ccccc2)c2ccccc2)c(=O)n1CC(=O)NCc1ccc2c(N)noc2c1 |
|  | 6.4 | > 3970 nM |  |  |  | Cc1nc2cc(CNC(=O)Cn3c(C)cnc(NCCc4ccccc4)c3=O)ccc2[nH]1 |
| 480 ng/mL | 5.8 | 9.3 nM | 1.15 h | 1010 ng·h/mL |  | Cc1cnc(NC[C@@H](C)c2ccccc2)c(=O)n1CC(=O)NCc1ccc2[nH]cnc2c1 |
| 310 ng/mL |  | 23.7 nM | 1.4 h | 523 ng·h/mL |  | CCc1cnc(NCCc2ccccc2)c(=O)n1CC(=O)NCc1ccc2[nH]ccc2c1 |
| 350 ng/mL | 3.8 |  | 1.85 h | 1040 ng·h/mL |  | COc1cccc(S(=O)(=O)Nc2cccn(CC(=O)NCc3ccc4c(N)[nH]nc4c3)c2=O)c1 |
|  | 7.5 | > 3970 nM |  |  |  | Cc1cnc(NCCc2ccccc2)c(=O)n1CC(=O)NCc1ccc2nc(N)sc2c1 |
| 190 ng/mL | 5.8 | 5 nM | 1.52 h | 458 ng·h/mL |  | COc1ccc(CCNc2ncc(C)n(CC(=O)NCc3ccc4[nH]cnc4c3)c2=O)cc1 |
| 390 ng/mL | 5.8 |  | 1.77 h | 1630 ng·h/mL |  | Cc1cnc(NCCc2ccccc2)c(=O)n1CC(=O)NCc1ccc2[nH]cnc2c1 |
|  |  | 3.1 nM |  |  |  | Cc1cnc(NCCc2ccccn2)c(=O)n1CC(=O)NCc1ccc2[nH]ncc2c1 |
|  |  | 18.4 nM |  |  |  | Cc1cnc(NCCc2ccccc2)c(=O)n1CC(=O)NCc1ccc2[nH]ncc2c1 |
|  |  | 1320 nM |  |  |  | Cc1ccc(NS(=O)(=O)c2ccc3c(c2)CCO3)c(=O)n1CC(=O)NCc1ccc2c[nH]nc2c1 |
| 30 ng/mL | 6.3 | 33 nM |  | 18.3 ng·h/mL |  | Cc1cnc(NCCc2ccccc2)c(=O)n1CC(=O)NCc1ccc2[nH]nc(O)c2c1 |
|  |  | 2.9 nM |  |  |  | Cc1cnc(NCCc2ccc3c(c2)CCO3)c(=O)n1CC(=O)NCc1ccc2[nH]ncc2c1 |
| 1520 ng/mL | 8.6 | 22.2 nM | 1.82 h | 5470 ng·h/mL |  | Cc1ccc(NS(=O)(=O)Cc2ccc(Br)cc2)c(=O)n1CC(=O)NCc1ccc2c(N)noc2c1 |
| 230 ng/mL | 3.6 | 28.7 nM | 1.2 h | 298 ng·h/mL |  | Cc1ccc(NS(=O)(=O)c2ccc3c(c2)CCO3)c(=O)n1CC(=O)NCc1ccc2[nH]nc(N)c2c1 |
| 1370 ng/mL | 3.6 | 9 nM | 1.48 h | 3270 ng·h/mL |  | COc1ccc(C2(CNc3ncc(C)n(CC(=O)NCc4ccc5[nH]nc(N)c5c4)c3=O)CC2)cc1 |
| 580 ng/mL | 3.8 | 224 nM | 1.4 h | 1310 ng·h/mL |  | Cc1ccc(NS(=O)(=O)Cc2ccccc2)c(=O)n1CC(=O)NCc1ccc2c(N)[nH]nc2c1 |
| 240 ng/mL | 8.2 |  | 2.2 h | 630 ng·h/mL |  | Cc1ccc(NS(=O)(=O)Cc2ccccc2)c(=O)n1CC(=O)NCc1ccc2onc(N)c2c1 |
|  |  | 5.7 nM |  |  |  | Cc1cnc(NC[C@H](C)c2ccccc2)c(=O)n1CC(=O)NCc1ccc2[nH]ncc2c1 |

| Cmax [1] | pKa [2] | Ki [3] | half-life [4] | AUC ([5]; plasma) | AUC ([5]; in vivo) | Compound |
| --- | --- | --- | --- | --- | --- | --- |
| 280 ng/mL | 4.7 | 203 nM | 0.6 h | 237 ng·h/mL |  | Cc1ccc(NS(=O)(=O)Cc2ccccc2)c(=O)n1CC(=O)NCc1ccc2c(N)noc2n1 |
| 1030 ng/mL | 3.6 |  | 2.77 h | 4850 ng·h/mL |  | Cc1cnc(NCCc2ccccc2)c(=O)n1CC(=O)NCc1ccc2[nH]nc(N)c2c1 |
|  |  | 224 nM |  |  |  | Cc1cnc(NCCc2ccccc2)c(=O)n1CC(=O)NCc1ccc2[nH]nnc2c1 |
|  |  | 10.4 nM |  |  |  | COc1cccc(CCNc2ncc(C)n(CC(=O)NCc3ccc4[nH]ncc4c3)c2=O)c1 |
|  | 6.7 | 1590 nM |  |  |  | Cc1ccc(NS(=O)(=O)Cc2ccccc2)c(=O)n1CC(=O)NCc1ccc2c(N)[nH]nc2n1 |
| 170 ng/mL | 5.8 | 6.5 nM | 1.15 h | 202 ng·h/mL |  | Cc1ccc(NS(=O)(=O)Cc2ccc(Cl)cc2)c(=O)n1CC(=O)NCc1ccc2[nH]cnc2c1 |
| 850 ng/mL | 8.6 | 15.5 nM | 2.17 h | 3150 ng·h/mL |  | Cc1cnc(NCC2(c3ccc(F)cc3)CC2)c(=O)n1CC(=O)NCc1ccc2c(N)noc2c1 |
|  | 4 | 271 nM |  |  |  | Cc1cc2cn[nH]c2cc1CNC(=O)Cn1c(C)ccc(NS(=O)(=O)Cc2ccccc2)c1=O |
|  | 6.3 | 10 nM |  |  |  | Cc1cnc(NCC2(c3ccccc3)CCC2)c(=O)n1CC(=O)NCc1ccc2[nH]nc(O)c2c1 |
|  |  | 29.8 nM |  |  |  | Cc1cnc(NCCc2ccc3c(c2)CCC3)c(=O)n1CC(=O)NCc1ccc2[nH]ccc2c1 |
| 960 ng/mL | 3.6 | 4.1 nM | 3.63 h | 5930 ng·h/mL |  | Cc1cnc(NCC(F)(F)c2ccccc2)c(=O)n1CC(=O)NCc1ccc2[nH]nc(N)c2c1 |
| 880 ng/mL | 3.6 | 15.4 nM | 2.07 h | 2950 ng·h/mL |  | Cc1cnc(NCC2(c3ccc(F)cc3)CC2)c(=O)n1CC(=O)NCc1ccc2[nH]nc(N)c2c1 |
| 1030 ng/mL | 8.6 | 82.2 nM | 2.52 h | 3950 ng·h/mL |  | Cc1cnc(NCCc2ccccc2)c(=O)n1CC(=O)NCc1ccc2c(N)noc2c1 |
| 930 ng/mL | 3.6 | 325 nM | 4.57 h | 3950 ng·h/mL |  | COc1cccc(S(=O)(=O)Nc2cccn(CC(=O)NCc3ccc4[nH]nc(N)c4c3)c2=O)c1 |
| 640 ng/mL | 8.6 | 17.6 nM | 4.35 h | 4680 ng·h/mL |  | Cc1cnc(NCCc2ccc(F)cc2)c(=O)n1CC(=O)NCc1ccc2c(N)noc2c1 |
|  | 7.4 | 12400 nM |  |  |  | Cc1cnc(NCCc2ccc3c(c2)CCC3)c(=O)n1CC(=O)NCc1ccc2c(ccn2N)c1 |
|  | 3.6 | 72.9 nM |  |  |  | Cc1ccc(NS(=O)(=O)Cc2ccccc2)c(=O)n1CC(=O)NCc1ccc2[nH]nc(N)c2c1 |
|  |  | 3.9 nM |  |  |  | Cc1ccc(NS(=O)(=O)c2ccc3c(c2)CCO3)c(=O)n1CC(=O)NCc1ccc2[nH]ncc2c1 |
| 1600 ng/mL | 8.6 | 74.3 nM | 1.55 h | 3680 ng·h/mL |  | Cc1ccc(NS(=O)(=O)Cc2ccccc2)c(=O)n1CC(=O)NCc1ccc2c(N)noc2c1 |
| 620 ng/mL | 8.6 | 10.2 nM | 1.95 h | 2150 ng·h/mL |  | Cc1cnc(NCC2(c3ccccc3)CCC2)c(=O)n1CC(=O)NCc1ccc2c(N)noc2c1 |
| 960 ng/mL |  |  | 0.417 h | 2200 ng·h/mL |  | Cc1cnc(NCCc2ccccc2)c(=O)n1CC(=O)NCc1ccc2cn[nH]c2c1 |
| 790 ng/mL |  | 0.7 nM | 1.78 h |  | 2670 ng·h/mL | Cc1nc(N)ccc1CNC(=O)Cn1c(C)ccc(NS(=O)(=O)Cc2ccccc2)c1=O [L-374087] |
| 900 ng/mL |  | 1 nM | 3.32 h |  | 4580 ng·h/mL | Cc1nc(N)ccc1CNC(=O)Cn1c(C)cnc(NCCc2ccccc2)c1=O [L-375378] |

From ChEMBL document CHEMBL1135211, “Non-covalent thrombin inhibitors featuring P3-heterocycles with P1-bicyclic arginine surrogates” (Bioorg Med Chem Lett, 2002)
